Measured values: US20250186411A1, “Methods of Treating Disorders Associated with Overactivation of IKKB” (The United States Government as represented by the …, priority 2023, published 2025)

Tested on: FVB/n mice
Experiment: Nephrotoxic Serum Nephritis (NTS) model
Assay type: in vivo, mouse
Experimental: In the Nephrotoxic Serum Nephritis (NTS) model, 8-week-old FVB/n mice were initially sensitized with an intraperitoneal injection of 0.5 mg of sheep IgG (IP, Jackson ImmunoResearch) with complete Freund's adjuvant (IP, Millipore Sigma). Five days later, mice were administered 100 μl of NTS (IP, ProbeTex), as previously described (Estrada et al. (2018) JCI Insight 3). […] Urine was collected and mice were euthanized at day 7 or day 14 post-NTS treatment.
Urine albumin was quantified by ELISA using a kit from Bethyl Laboratory Inc. Urine creatinine levels were measured in the same samples using the Creatinine Colorimetric Assay Kit (500701; Cayman Chemical) as per manufacturer's protocol.
Briefly formalin-fixed and paraffin embedded sections were deparaffinized, and endogenous peroxidase was inactivated with H2O2. All kidney sections from these mice were prepared in identical fashion. Immunofluorescence was performed using rabbit anti-KLF15, mouse anti-WT1 (Santa Cruz, SC-7385), rabbit anti-Synaptopodin (Sigma, SAB3500585), rabbit anti-p65 (Cell Signaling Tech, 8242S) antibodies. After washing, sections were incubated with the appropriate fluorophore-linked secondary antibody (Alexa Fluor 647 Donkey anti-mouse, Alexa Fluor 568 Donkey anti-rabbit antibodies, Life Technologies). After counter staining with Hoechst (Thermo Fisher Scientific), slides were mounted in Prolong Gold mounting media (Thermo Fisher Scientific) and photographed under a Nikon Eclipse Ni-E Fully Motorized Microscope System with a DS-Qi2 digital camera.
Quantification of KLF15 staining in the podocytes was determined by quantifying the intensity of KLF15 staining (optical density) in WT1+Hoechst staining using ImageJ 1.53c software (National Institute of Health, http://imagej.nih.gov/ij).
Mice were perfused with PBS, and the kidneys were fixed in 10% phosphate buffered formalin overnight and switched to 70% ethanol before processing for histology. Kidney tissue was embedded in paraffin by Stony Brook Medicine Research Histology Core Laboratory (RHCL)—Department of Pathology and 4-μm-thick sections were stained with periodic acid-Schiff (PAS), hematoxylin & eosin (H&E), and masson's trichrome (Sigma-Aldrich). Quantification of % FSGS was determined by renal pathology in a blinded fashion (Huntsman Cancer Institute-University of Utah Health).

## CSc1ccc(NC(=O)Nc2ccc(C)nc2)cc1 [BT503]
Day 7 and 14 post-NTS treatment, vs DMSO
  albuminuria: significantly less albuminuria
post-NTS treatment
  p65 expression in the glomeruli: attenuated
Vs DMSO
  glomerular injury (% of glomeruli with FSGS, extracapillary proliferation) and proteinaceous casts: significantly reduced
  glomerular synaptopodin expression: restored
  interstitial fibrosis (masson's trichrome and α-SMA staining): less interstitial fibrosis
  podocyte number (WT1+ podocytes per glomerular cross-sectional area): restored the podocyte number
